According to US6969702B2, “Compounds and methods for increasing neurogenesis” (priority 2002, dated 2005):
pEC50: −log10 of the molar value. Ends that are not written are not given here.

Columns and labels:
neural stem cells = test: In vitro proliferation measured with ATP (Example 14); type: cell-based; set-up: cell proliferation (ATP), fold the level of control cells: dose or concentration left out as unconfirmed
Method: To determine proliferation, neurospheres were split and seeded in Neurosphere medium as single cells in 96-well plates, at 10,000 cells/well. The following experiment was performed in sets of four parallel experiments (i.e., performed in quadruplicate) such that the cells may be used for different assays. Substances to be tested were added and cells were incubated at 37° C. for 4 days. Cells were lysed with 0.1 % Triton-X100 in Tris-EDTA buffer. Intracellular ATP was measured using an ATP-SL kit according to the manufacturer's instructions (BioThema, Sweden).

[1] = system: newborn cells (BrdU positive) in sub ventricular zone and dentate gyrus; test: In vivo progenitor cell proliferation (BrdU); set-up: species or system Wistar rats; conditions: 10 mg/kg intraperitoneally twice daily 7 days with BrdU
[2] = system: adenylate cyclase in UMR 106-06 cells; conditions: relative to sCT; cited from earlier work
[3] = target: dipeptidyl peptidase-IV (DPP-VI) (Homo sapiens, UniProt P27487); conditions: in mammals; cited from earlier work
dipeptidyl peptidase-IV (DPP-VI), sequence (P27487 whole entry, species assumed): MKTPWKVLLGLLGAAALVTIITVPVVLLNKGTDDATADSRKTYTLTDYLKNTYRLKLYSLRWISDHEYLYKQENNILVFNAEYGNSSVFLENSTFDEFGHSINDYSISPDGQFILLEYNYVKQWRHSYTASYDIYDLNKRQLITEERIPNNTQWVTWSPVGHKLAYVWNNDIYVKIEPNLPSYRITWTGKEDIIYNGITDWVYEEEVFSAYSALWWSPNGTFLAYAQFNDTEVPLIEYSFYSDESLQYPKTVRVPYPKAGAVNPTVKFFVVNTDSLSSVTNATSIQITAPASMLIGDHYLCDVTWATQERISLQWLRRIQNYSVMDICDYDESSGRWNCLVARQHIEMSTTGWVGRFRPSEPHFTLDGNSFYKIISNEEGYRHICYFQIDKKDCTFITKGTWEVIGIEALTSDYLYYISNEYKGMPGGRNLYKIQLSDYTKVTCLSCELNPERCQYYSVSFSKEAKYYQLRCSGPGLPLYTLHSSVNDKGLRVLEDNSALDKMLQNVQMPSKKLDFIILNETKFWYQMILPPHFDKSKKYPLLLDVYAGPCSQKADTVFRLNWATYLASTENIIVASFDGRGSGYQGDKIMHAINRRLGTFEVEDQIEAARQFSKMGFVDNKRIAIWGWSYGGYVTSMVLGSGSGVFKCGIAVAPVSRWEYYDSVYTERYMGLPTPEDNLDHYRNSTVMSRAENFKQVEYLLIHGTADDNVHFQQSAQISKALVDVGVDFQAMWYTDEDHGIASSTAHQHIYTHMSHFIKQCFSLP

CC[C@H](C)[C@H](NC(=O)[C@H](C)NC(=O)[C@@H](NC(=O)[C@H](CCC(N)=O)NC(=O)[C@@H]1CCCN1C(=O)[C@H](Cc1ccccc1)NC(=O)[C@@H](NC(=O)[C@H](Cc1c[nH]cn1)NC(=O)[C@H](Cc1ccccc1)NC(=O)[C@H](CCCCN)NC(=O)[C@H](CC(N)=O)NC(=O)[C@H](Cc1ccccc1)NC(=O)[C@H](CC(=O)O)NC(=O)[C@H](CCC(N)=O)NC(=O)[C@@H](NC(=O)[C@H](Cc1ccc(O)cc1)NC(=O)[C@@H](NC(=O)CNC(=O)[C@H](CC(C)C)NC(=O)[C@H](CCSC)NC(=O)[C@@H]1CSSC[C@H](N)C(=O)NCC(=O)N[C@@H](CC(N)=O)C(=O)N[C@@H](CC(C)C)C(=O)N[C@@H](CO)C(=O)N[C@@H]([C@@H](C)O)C(=O)N1)[C@@H](C)O)[C@@H](C)O)[C@@H](C)O)[C@@H](C)O)C(=O)NCC(=O)N[C@H](C(=O)NCC(=O)N[C@@H](C)C(=O)N1CCC[C@H]1C(N)=O)C(C)C [calcitonin]
cell proliferation (ATP), fold the level of control cells (neural stem cells; 4 days): 2.5 fold | pEC50 (neural stem cells; neural stem cell cultures, read-out: EC50 value (proliferation dose-response curve, FIG. 3)): 10.52 | number of newborn cells (BrdU positive compared to sham injected) [1]: significant increase

CSNLSTCVLGRLSKDLHRLQTFPRTNTGAGVP (cysteine pairing not given here) [[Arg11, 18, Lys14]-sCT]
potency in activating adenylate cyclase [2]: equivalent to that of sCT

His-Asp-Glu-Phe-Glu-Arg-His-Ala-Glu-Gly-Thr-Phe-Thr-Ser-Asp-Val-Ser-Ser-Tyr-Leu-Glu-Gly-Gln-Ala-Ala-Lys-Glu-Phe-Ile-Ala-Trp-Leu-Val-Lys-Gly-Arg-Gly [GLP-1]
halftime of degradation [3]: less than 2 min
